Laboratory results reported in patent publication US5478842A, “Ether derivatives having 5-lipoxygenase inhibitory activity” (Zeneca Limited, priority 1993, dated 1995).

Columns and labels:
hepatic enzymes = experiment: Auto-induction on repeat dosing (decrease in C max or AUC); type: in vivo; conditions: repeated dosing to a warm-blooded animal
From the text: The result is a decrease on repeat dosing of the quantity of the compound present in the animal's blood stream as shown, for example, by a decrease in the maximum concentration achieved (C max) or, for example, a decrease in the exposure of the animal to the compound as measured by the area under the curve (AUC) of a plot of the concentration of the compound in the blood stream versus time after dosing.

5-LO (LTB4) [1] = target: T1, 5-LO (LTB4) (Homo sapiens, UniProt P09917); experiment: Test a): in vitro assay in heparinised human blood challenged with calcium ionophore A23187, LTB4 by radioimmunoassay; type: cell-based
T1 construct: incubating a test compound with heparinised human blood, prior to challenge with the calcium ionophore A23187; from tissue; host or cells: heparinised human whole blood (endogenous enzyme of blood cells)
T1 sequence (P09917 1-674): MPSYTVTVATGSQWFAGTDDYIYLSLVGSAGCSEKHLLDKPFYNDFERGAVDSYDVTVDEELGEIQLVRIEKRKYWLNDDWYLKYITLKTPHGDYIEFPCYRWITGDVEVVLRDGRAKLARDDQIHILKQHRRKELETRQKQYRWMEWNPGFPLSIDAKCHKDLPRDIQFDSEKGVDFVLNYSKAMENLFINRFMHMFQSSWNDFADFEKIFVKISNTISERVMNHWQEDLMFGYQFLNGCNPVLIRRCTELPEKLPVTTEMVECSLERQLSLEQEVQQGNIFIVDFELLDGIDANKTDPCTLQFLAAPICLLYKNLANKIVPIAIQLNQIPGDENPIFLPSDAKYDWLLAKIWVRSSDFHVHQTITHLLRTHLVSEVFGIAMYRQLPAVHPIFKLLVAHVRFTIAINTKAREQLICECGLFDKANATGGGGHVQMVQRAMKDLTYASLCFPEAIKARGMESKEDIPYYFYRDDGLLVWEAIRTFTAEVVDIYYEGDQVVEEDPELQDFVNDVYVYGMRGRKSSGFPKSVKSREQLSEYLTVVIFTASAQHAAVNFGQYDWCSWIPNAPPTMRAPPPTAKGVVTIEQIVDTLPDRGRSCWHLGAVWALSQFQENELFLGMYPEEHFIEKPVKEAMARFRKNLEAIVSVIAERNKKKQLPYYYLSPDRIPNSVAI
Protocol: a) An in vitro assay system involving incubating a test compound with heparinised human blood, prior to challenge with the calcium ionophore A23187 and then indirectly measuring the inhibitory effects on 5-L0 by assaying the amount of LTB4 using specific radioimmunoassays described by Carey and Forder (F. Carey and R. A. Forder, Prostaglandins, Leukotrienes Med., 1986, 22, 57; Prostaglandins, 1984, 28, 666; Brit. J. Pharmacol. 1985, 84, 34P) which involve the use of a protein-LTB4 conjugate produced using the procedure of Young et alia (Prostaglandins, 1983, 26(4), 605-613). The effects of a test compound on the enzyme cyclooxygenase (which is involved in the alternative metabolic pathway for arachidonic acid and gives rise to prostaglandins, thromboxanes and related metabolites) may be measured at the same time using the specific radioimmunoassay for thromboxane B2(TxB2) described by Carey and Forder (see above). This test provides an indication of the effects of a test compound against 5-L0 and also cyclooxygenase in the presence of blood cells and proteins. It permits the selectivity of the inhibitory effect on 5-L0 or cyclooxygenase to be assessed.

5-LO (LTB4) [2] = target: T2, 5-LO (LTB4) (Rattus norvegicus, UniProt P12527); experiment: Test c): in vivo zymosan-induced LTB4 liberation in air pouch of male rats, oral; conditions: 3 h; test c)
T2 construct: An in vivo system involving measuring the effects of a test compound administered orally to a group of male rats; from tissue; host or cells: live male rats, zymosan-inflamed subcutaneous air pouch (endogenous enzyme)
T2 sequence (P12527 1-673): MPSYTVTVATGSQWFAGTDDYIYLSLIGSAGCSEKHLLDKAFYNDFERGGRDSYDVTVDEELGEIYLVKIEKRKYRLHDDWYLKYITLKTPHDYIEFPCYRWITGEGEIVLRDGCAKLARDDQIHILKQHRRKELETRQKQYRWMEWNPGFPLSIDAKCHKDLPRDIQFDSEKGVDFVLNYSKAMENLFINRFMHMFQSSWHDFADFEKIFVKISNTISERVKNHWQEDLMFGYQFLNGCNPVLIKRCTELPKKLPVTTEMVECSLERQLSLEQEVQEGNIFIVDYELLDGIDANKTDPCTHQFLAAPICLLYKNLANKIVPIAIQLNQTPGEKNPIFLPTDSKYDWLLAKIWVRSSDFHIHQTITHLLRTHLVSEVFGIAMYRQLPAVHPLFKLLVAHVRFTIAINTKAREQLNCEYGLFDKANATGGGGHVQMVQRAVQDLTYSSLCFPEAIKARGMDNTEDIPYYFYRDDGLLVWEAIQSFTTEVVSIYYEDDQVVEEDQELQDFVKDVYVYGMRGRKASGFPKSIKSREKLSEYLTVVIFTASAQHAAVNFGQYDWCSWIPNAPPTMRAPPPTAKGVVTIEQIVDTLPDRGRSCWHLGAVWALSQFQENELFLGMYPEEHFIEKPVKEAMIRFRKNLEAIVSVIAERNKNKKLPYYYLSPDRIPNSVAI
Protocol: c) An in vivo system involving measuring the effects of a test compound administered orally to a group of male rats against the liberation of LTB4 induced by zymosan within an air pouch generated within the subcutaneous tissue of the back of the rats. The rats are anaesthetised and air pouches are formed by the injection of sterile air (20 ml). A further injection of air (10 ml) is similarly given after 3 days. At 6 days after the initial air injection the test compound is administered (usually orally as the suspension produced when a solution of the test compound in dimethylsulphoxide is added to hydroxypropylmethylcellulose), followed by the intrapouch injection of zymosan (1 ml of a 1% suspension in physiological saline). After 3 hours the rats are killed, the air pouches are lavaged with physiological saline, and the specific radioimmunoassay described above is used to assay LTB4 in the washings. This test provides an indication of inhibitory effects against 5-L0 in an inflammatory milieu.
Test c): oral ED50 (LTB4) in the range, for example, 0.1-100 mg/kg.

[3] = Crystallinity / physical form; type: physicochemical
From the text: Such non-crystalline compounds are undesirable when consideration is given toward the preparation, purification, analysis, handling and formulation of larger quantities of the compounds.
In another aspect of the invention we have discovered that certain compounds of the invention are crystalline. The crystalline compounds of the invention are those for which a melting point has been given within the Examples provided hereinafter, for example the compounds of Examples 27 and 28. Thus such compounds are of value when their preparation on a larger scale is required. The purification, analysis and handling of a material is facilitated if it is formed in the crystalline state. It is known, for example, that the removal of solvent residues from non-crystalline, oily materials is problematical. In addition the preparation of a pharmaceutical composition comprising a crystalline material is a conventional procedure. The composition may, for example, be in a form suitable for oral use such as a tablet or capsule; or, for example, in a form suitable for administration by inhalation, for example as a finely divided powder or a microcrystalline form. Such options for the formulation of the material are precluded should it be formed in an oily state.

IC50 (5-LO (LTB4) [1])	ED50 (5-LO (LTB4) [2])	crystallinity / physical form [3]	SMILES	auto-induction (hepatic enzymes)
–	–	–	COC1(c2ccc(Sc3ccc4c(c3)CCC(=O)N4C)s2)CCOCC1 [4-methoxy-4-[5-(1-methyl-2-oxo-1,2,3,4-tetrahydroquinolin-6-ylthio)thien-2-yl]tetrahydropyran, reference compound]	possesses the undesirable property of auto-induction
30 nM	~0.15 mg/kg	–	C[C@H]1C[C@@](O)(c2cc(F)cc(S(=O)(=O)c3ccc4c(c3)CCC(=O)N4C)c2)CCO1 [Example 2, (2S,4R)-4-[5-fluoro-3-(1-methyl-2-oxo-1,2,3,4-tetrahydroquinolin-6-ylsulphonyl)phenyl]-4-hydroxy-2-methyltetrahydropyran]	–
–	–	crystalline	C[C@H]1C[C@@](O)(c2cnc(Sc3ccc4c(c3)CC(=O)N4C)s2)CCO1 [Example 27, (2S,4R)-4-hydroxy-2-methyl-4-[2-(1-methyl-2-oxoindolin-5-ylthio)thiazol-5-yl]tetrahydropyran]	–
50 nM	~0.2 mg/kg	–	C[C@H]1C[C@@](O)(c2cnc(Sc3ccc4c(c3)CCC(=O)N4C)s2)CCO1 [Example 3, (2S,4R)-4-hydroxy-2-methyl-4-[2-(1-methyl-2-oxo-1,2,3,4-tetrahydro-quinolin-6-ylthio)thiazol-5-yl]tetrahydropyran]	lack to a substantial degree the undesirable property of auto-induction
–	–	–	C[C@H]1C[C@@](O)(c2csc(S(=O)(=O)c3ccc4c(c3)CCC(=O)N4C)c2)CCO1 [Example 9, (2S,4R)-4-hydroxy-2-methyl-4-[2-(1-methyl-2-oxo-1,2,3,4-tetrahydroquinolin-6-ylsulphonyl)thien-4-yl]tetrahydropyran]	lack to a substantial degree the undesirable property of auto-induction
30 nM	~0.02 mg/kg	–	C[C@H]1C[C@@](O)(c2csc(Sc3ccc4c(c3)CCC(=O)N4C)c2)CCO1 [Example 5, (2S,4R)-4-hydroxy-2-methyl-4-[2-(1-methyl-2-oxo-1,2,3,4-tetrahydroquinolin-6-ylthio)thien-4-yl]tetrahydropyran]	–
20 nM	~0.05 mg/kg	crystalline	C[C@H]1C[C@@](O)(c2csc(Sc3ccc4c(c3)CC(=O)N4C)c2)CCO1 [Example 28, (2S,4R)-4-hydroxy-2-methyl-4-[2-(1-methyl-2-oxoindolin-5-ylthio)thien-4-yl]tetrahydropyran]	lack to a substantial degree the undesirable property of auto-induction
–	–	viscous oil	CO[C@]1(c2ccc(Sc3ccc4c(c3)CCC(=S)N4C)s2)CCO[C@@H](C)C1 [(2S,4R)-4-methoxy-2-methyl-4-[5-(1-methyl-2-thioxo-1,2,3,4-tetrahydroquinolin-6-ylthio)thien-2-yl]tetrahydropyran, reference compound]	–
